# Reference: US20090149417A1, “Methods and compositions for the treatment of cancer using benzopyrone-type PARP inhibitors” (priority 2007, published 2009)
# Read-outs that look alike come from different tables or passages of the source.
# Columns and labels:
# Experiment in all cases: BrdU chemiluminescent cell proliferation assay
# Format in all cases: cell-based, human
# [1] = system: MX-1; settings: for IC50: Homo sapiens, MX1, 72 hour treatment
# Method: (§1) Test Agents—Cells are treated 24 hours after plating (Day 1) with vehicle or test agents at concentrations of 0.1 μM, 0.3 μM, 1 μM, 3 μM, 10 μM, 30 μM and 100 μM.
# (§2) Tumor Cell Lines—Tumor cell lines (Table 1) are obtained from the American Type Cell Collection (ATCC, Rockville, Md.) or NCI-DCTD Tumor Repository (Bethesda, Md.) and maintained in proper growth media supplemented with 10% fetal bovine serum (FBS, NovaTech), and are maintained in specified growth media. Cells are propagated at 37° C. in a humidified atmosphere containing 5% carbon dioxide.
# (§3) Cell proliferation assay—Cell proliferation is determined using BrdU chemiluminescent assay, which measures incorporation of 5-bromo-2′-deoxyuridine (BrdU) into the genomic DNA of proliferating cells. Briefly, cells are added with BrdU for 4 hours, during which time it incorporates into the DNA of dividing cells in place of thymidine. Following labeling, cells are fixed and DNA denatured in one step by adding a FixDenat® denaturizing solution. After removing FixDenat, an anti-BrdU-peroxidase conjugated antibody is added, which binds to BrdU incorporated into newly-synthesized cellular DNA. Following antibody incubation, cells are washed 3 times with PBS and subjected to luminescent analysis. The reaction product is quantified by measuring light emission using a scanning multi-well luminometer (luminescence ELISA reader.)
# (§4) Experimental Design—Tumor cells (Table 1) are grown to 70% confluency, trypsinized, counted and seeded in 96 well flat-bottom plates at final concentrations of 7.5×103-3×10^4 cells/well (Day 0); treatment with IIIg begins on Day 1 and continues for 68 hours (Table 2). Doses for both compounds range between […] and 100 μM. At the 68 hour time point, viable cell number is measured by BrdU assay as described above. Experiments are repeated at least twice at the same doses to determine inhibition of cell proliferation. Results from these studies are used to calculate an IC50 value (drug concentration that results in half-maximal response) for IIIg in each line.
# (§5) For single studies, data from each experiment is collected and expressed as % Inhibition of Cell Proliferation (% ICP) using the following calculation.
# (§6) % ICP=100%×[(1−(RLUtest/RLUvehicle)]
# (§7) Where RLUtest is the relative light unit of the tested sample, and RLUvehicle is the relative light unit of the vehicle in which the drug is dissolved. An IC50 value is calculated from % ICP (PRISM® GraphPad software) using the formula:
# (§8) y=min+(max−min)/(1+10^(Log(IC50)−x)×Hillslope)
# (§9) Where (x) is the logarithm of agonist concentration, (y) is the response, and (min) and (max) are the variable lower and upper plateaus, respectively. The variable Hillslope characterizes the slope of the curve at its midpoint. The IC50 is the drug concentration for y halfway between min and max.
# [2] = system: PC-3; settings: for IC50: Homo sapiens, PC-3, 72 h, 72 hour treatment
# Method: as §1, §2, §3, §4, §5, §6, §7, §8, §9
# [3] = system: NIH: OVCAR-3; settings: for IC50: Homo sapiens, OVCAR-3, 72 h, 72 hour treatment
# Method: as §1, §2, §3, §4, §5, §6, §7, §8, §9
# [4] = system: PANC-1; settings: for IC50: Homo sapiens, PANC-1, 72 h, 72 hour treatment
# Method: as §1, §2, §3, §4, §5, §6, §7, §8, §9
# [5] = system: MDA-MB-231; settings: for IC50: Homo sapiens, MDA-MB-231, 72 h, 72 hour treatment
# Method: as §1, §2, §3, §4, §5, §6, §7, §8, §9
# [6] = mean of Exp1 and Exp2, read-out: Mean IC50
smiles,measurement,setting,value
"O=c1ccc2c(I)c([N+](=O)[O-])ccc2o1 [IIIg, 5-iodo-6-nitro-benzopyrone]",IC50,"[1]; Exp2, read-out: IC50",27 µM
same,IC50,[1]; [6],27 µM
same,Mean Maximum % Response,[1]; Max Concentration 100 μM,99%
same,IC50,"[2]; Exp1, read-out: IC50",22 µM
same,IC50,"[2]; Exp2, read-out: IC50",25.3 µM
same,IC50,[2]; [6],23.7 µM
same,Mean Maximum % Response,[2]; Max Concentration 100 μM,100%
same,IC50,"[3]; Exp1, read-out: IC50",30.4 µM
same,IC50,"[3]; Exp2, read-out: IC50",29.6 µM
same,IC50,[3]; [6],30 µM
same,Mean Maximum % Response,[3]; Max Concentration 100 μM,98%
same,IC50,"[4]; Exp1, read-out: IC50",22 µM
same,IC50,"[4]; Exp2, read-out: IC50",27 µM
same,IC50,[4]; [6],24.5 µM
same,Mean Maximum % Response,[4]; Max Concentration 100 μM,99%
same,IC50,"[5]; Exp1, read-out: IC50",24 µM
same,IC50,"[5]; Exp2, read-out: IC50",24.3 µM
same,IC50,[5]; [6],24.2 µM
same,Mean Maximum % Response,[5]; Max Concentration 100 μM,99%
